The experiment has as its system anti-AQP5 autoantibodies. The experiment can be described thus: Indirect immunofluorescence (IIF) assay: AQP5 staining by human serum/IgG pre-incubated with peptide. The format is binding. The settings on record: for inhibition of anti-AQP5 autoantibodies from the control group: by comparison of the mean signal intensities (Fig. 2B); for frequency of recognition by SS vs control samples: seven peptides originating from the AQP5 sequence. The text has this: This study was done in compliance with the Helsinki Declaration after approvals from the Institutional Review Board of Seoul National University Hospital (IRB number: 0912-011-302) and the Institutional Review Board of Seoul St. Mary's Hospital (IRB number: KC13ONMI0646). From our previous study (12), 13 control and 24 SS serum samples positive for anti-AQP5 IgG were chosen based on the levels of anti-AQP5 IgG and availability. The first 12 control and 12 SS samples had similar low levels of anti-AQP5 IgG, while the rest of the samples had intermediate to high levels. IgG antibodies were purified using a protein A column (ThermoFisher Scientific, Waltham, MA, USA) from the sera of 3 SS patients who were not included in the previous study. A commercial human IgG product purified from pooled normal sera (Sigma-Aldrich Korea, Seoul, Korea) was used as control. All SS patients fulfilled the 2002 American-European Consensus group classification criteria and/or the 2012 American College of Rheumatology criteria. Madin-Darby canine kidney (MDCK) cells expressing full-length human AQP5 (MDCK-AQP5) were maintained in DMEM medium with 10% FBS and 1% penicillin/streptomycin in the presence of G418 (12). A mixture of non-transfected MDCK and MDCK-AQP5 cells (6 × 10^4) was plated onto collagen-coated coverslips of 12 mm diameter. After stimulation with 0.5 mM cAMP for 24 hours, the cells were fixed with 4% paraformaldehyde in PBS (pH 7.4) and subjected to antigen retrieval by incubation in sodium citrate buffer (10 mM sodium citrate, 0.05% Tween-20, pH 6) at 105 °C for 20 min. After blocking with 5% BSA in PBS, the cells were incubated with goat polyclonal antibodies raised against a peptide near the C-terminus of human AQP5 (Santa Cruz, Paso Robles, CA, USA) along with control/SS sera (1:200 dilution) or purified IgG (10 µg) that were pre-incubated overnight with 10 µg synthetic peptides in RIA buffer (10 mM Tris-HCl, 350 mM NaCl, 1% BSA, 1% Triton X-100, 0.5 % Sodium deoxycholate, 0.1% SDS, 10% Horse serum, pH 7.6). Subsequently, the cells were stained with Alexa Fluor 488-conjugated donkey anti-goat IgG (Invitrogen, Carlsbad, CA, USA) and CF™ 594-conjugated rabbit anti-human IgG (Sigma-Aldrich). At least four images of AQP5-expressing cells were randomly selected, based on the goat anti-AQP5 antibody stain, and imaged sequentially for the staining with human IgG using a confocal microscope (Carl Zeiss, Jena, Germany). After coding the images, two individuals blindly determined the relative intensities of the anti-AQP5 human IgG signals by decreasing the brightness of the red signal until all the signals of AQP5 stain disappeared. […] The mean of the Δ brightness was used to express the anti-AQP5 IgG level in each sample. The differences in proportion between two groups were determined by Fisher's exact test. Differences in means between the experimental and control groups were determined by Student's t-test, while the differences among peptides were determined by Oneway ANOVA. All statistical analyses were performed using SPSS (SPSS Inc., Chicago, USA). To analyze the epitopes recognized by anti-AQP5 autoantibodies, MDCK-AQP5 cells were double stained with goat anti-AQP5 antibodies and serum from either control subjects or SS patients that were pre-incubated with each peptide (Fig. 2A). The intensity of AQP5 staining by human IgG in the presence of each peptide was expressed as the percentage of control conditions in the absence of peptides (Table 2). Because the normalized intensities of AQP5 staining in the presence of IRP varied from 69 to 173 depending on the sample, signal intensities smaller than 62.2, which is the mean - 2SD of values in the presence of IRP, were regarded as being inhibited by the corresponding peptide.

With “GCSMNPARSFGC (Epitope of AQP5 Extracellular loop E with Cystein added at C- term) [peptide E1, Extracellular loop E aa 181-191 with C-terminal cysteine added]”, the “inhibition of anti-AQP5 autoantibodies from the control group” value is given as “significantly inhibited” and the “frequency of recognition by SS vs control samples” value is “most frequently recognized”. Under “14 control samples (13 sera, 1 control-IgG), inhibited = signal intensity smaller than 62.2”, the “control samples inhibited by / recognizing the peptide” value is listed as 2 of 14. For the same sequence, the “SS samples inhibited by / recognizing the peptide” value (27 SS samples (24 sera, 3 purified IgG), inhibited = signal intensity smaller than 62.2) is 20 of 27.

For “CMNPARSFGC (Epitope of AQP5 Extracellular loop E with Cystein added at N- and C- term) [E2, Extracellular loop E aa 184-191 with added terminal cysteines]”, the “inhibition of anti-AQP5 autoantibodies from the control group” value is “significantly inhibited” and the “frequency of recognition by SS vs control samples” value is “more frequently recognized by SS than by control samples”.

These data come from EP3611183B1, “EPITOPE PEPTIDE SPECIFICALLY RECOGNIZING AUTOANTIBODY AGAINST AQUAPORIN 5, AND USE THEREOF” (Seoul National University R & DB Foundation, priority 2017, dated 2023).
